This passage reports EC50 results from patent US12077537B2 (Gilead Sciences, Inc., priority 2020, dated 2024).

For the test, the system named is HIV-IIIb. In words: Antiviral assay in MT4 cells. Format: cell-based. The conditions noted are these: Human immunodeficiency virus 1, MT4, 120 h; MT-4 cells mixed with HIV-IIIb at m.o.i. 0.003; 5 days at 37° C.; CellTiter-Glo luminescence; 50% decrease in signal, a measure of HIV-1 replication. The procedure:
Antiviral Assay in MT4 Cells For the antiviral assay, 40 μL of a concentration required to achieve a final effective 1× test concentration of 3-fold serially diluted compound in culture medium with 10% FBS was added to each well of a 384-well plate (10 concentrations) in quadruplicate. MT-4 cells were next mixed with HIV-IIIb at an m.o.i of 0.003 for 1 hour, after which time 35 μL of virus/cell mixture (2000 cells) was immediately added to each well containing 40 μL of diluted compound. The plates were then incubated at 37° C. for 5 days. After 5 days of incubation, 25 μl of 2× concentrated CellTiter-Glom Reagent (catalog #G7571, Promega Biosciences, Inc., Madison, WI) was added to each well containing MT-4 cells. Cell lysis was carried out by incubating at room temperature for 10 min and then chemiluminescence was read.
On the technique in general: Cellular ATP, detected with luciferase, serves as a proxy for viable cell number.
Usually EC50 stands for the concentration that produces a half-maximal response. As for `Cc1[nH]c2ccccc2c1CC(=O)N[C@@H](Cc1ccccc1)c1nc2ccccc2n1-c1ccccc1` [Compound 2, (S)-2-(2-methyl-1H-indol-3-yl)-N-(2-phenyl-1-(1-phenyl-1H-benzo[d]imidazol-2-yl)ethyl)acetamide], the EC50 came to 29700 nM. In turn, `Cn1nc(N)c2cccc(-c3cc4sc(N5CC(C)(O)C5)nc4nc3[C@H](Cc3cc(F)cc(F)c3)NC(=O)Cn3nc(C(F)(F)F)c4c3C(F)(F)[C@@H]3C[C@H]43)c21` [Compound 58, N—((S)-1-(6-(3-amino-1-methyl-1H-indazol-7-yl)-2-(3-hydroxy-3-methylazetidin-1-yl)thiazolo[4,5-b]pyridin-5-yl)-2-(3,5-difluorophenyl)ethyl)-2-((3bS,4aR)-5,5-difluoro-3-(trifluoromethyl)-3b,4,4a,5-tetrahydro-1H-cyclopropa[3,4]cyclopenta[1,2-c]pyrazol-1-yl)acetamide] returned an EC50 of 14.7 nM.

As to `O=C(Cn1nc(C(F)(F)F)c2c1C(F)(F)[C@@H]1C[C@H]21)N[C@@H](Cc1cc(F)cc(F)c1)c1nc2nc(-c3ccc(N4CCOCC4)cc3)sc2cc1-c1ccc2c(c1)C(=O)NC2` [Compound 144, 2-((3bS,4aR)-5,5-difluoro-3-(trifluoromethyl)-3b,4,4a,5-tetrahydro-1H-cyclopropa[3,4]cyclopenta[1,2-c]pyrazol-1-yl)-N—((S)-2-(3,5-difluorophenyl)-1-(2-(4-morpholinophenyl)-6-(3-oxoisoindolin-5-yl)thiazolo[4,5-b]pyridin-5-yl)ethyl)acetamide], the EC50 is 44.4 nM.

In the case of `O=C(Cn1nc(C(F)(F)F)c2c1C(F)(F)[C@@H]1C[C@H]21)N[C@@H](Cc1cc(F)cc(F)c1)c1nc2nc(N3CCN(c4ccc(-c5ncc[nH]5)cc4)CC3)sc2cc1-c1ccc2c(c1)C(=O)NC2` [Compound 34, N—((S)-1-(2-(4-(4-(1H-imidazol-2-yl)phenyl)piperazin-1-yl)-6-(3-oxoisoindolin-5-yl)thiazolo[4,5-b]pyridin-5-yl)-2-(3,5-difluorophenyl)ethyl)-2-((3bS,4aR)-5,5-difluoro-3-(trifluoromethyl)-3b,4,4a,5-tetrahydro-1H-cyclopropa[3,4]cyclopenta[1,2-c]pyrazol-1-yl)acetamide], it took 97.8 nM to reach a half-maximal effect (EC50). Next, `Cn1nc(NS(C)(=O)=O)c2cccc(-c3cc4[nH]c(-c5ccccc5)cc4nc3[C@H](Cc3cc(F)cc(F)c3)NC(=O)Cn3nc(C(F)(F)F)c4c3C(F)(F)[C@@H]3C[C@H]43)c21` [Example 121, 2-((3bS,4aR)-5,5-difluoro-3-(trifluoromethyl)-3b,4,4a,5-tetrahydro-1H-cyclopropa[3,4]cyclopenta[1,2-c]pyrazol-1-yl)-N—((S)-2-(3,5-difluorophenyl)-1-(6-(1-methyl-3-(methylsulfonamido)-1H-indazol-7-yl)-2-phenyl-1H-pyrrolo[3,2-b]pyridin-5-yl)ethyl)acetamide]: 79.6 nM; `CSc1nc2nc([C@H](Cc3cc(F)cc(F)c3)NC(=O)Cn3nc(C(F)F)c4c3C(F)(F)[C@@H]3C[C@H]43)c(-c3ccc4c(c3)C(=O)NC4)cc2s1` [Compound 23-2, 2-((3bS,4aR)-3-(difluoromethyl)-5,5-difluoro-3b,4,4a,5-tetrahydro-1H-cyclopropa[3,4]cyclopenta[1,2-c]pyrazol-1-yl)-N—((S)-2-(3,5-difluorophenyl)-1-(2-(methylthio)-6-(3-oxoisoindolin-5-yl)thiazolo[4,5-b]pyridin-5-yl)ethyl)acetamide]: 984 nM. Molecule `NC(=O)c1cc(-c2cc3sc(N4CCN(c5nc6ccccc6[nH]5)CC4)nc3nc2[C@H](Cc2cc(F)cc(F)c2)NC(=O)Cn2nc(C(F)(F)F)c3c2C(F)(F)[C@@H]2C[C@H]32)ccc1F` [Compound 45, 5-(2-(4-(1H-benzo[d]imidazol-2-yl)piperazin-1-yl)-5-((S)-1-(2-((3bS,4aR)-5,5-difluoro-3-(trifluoromethyl)-3b,4,4a,5-tetrahydro-1H-cyclopropa[3,4]cyclopenta[1,2-c]pyrazol-1-yl)acetamido)-2-(3,5-difluorophenyl)ethyl)thiazolo[4,5-b]pyridin-6-yl)-2-fluorobenzamide] showed a concentration giving a half-maximal response (EC50) of 144 nM. Molecule `CN(C)c1ncc(-c2nc3nc([C@H](Cc4cc(F)cc(F)c4)NC(=O)Cn4nc(C(F)(F)F)c5c4C(F)(F)[C@@H]4C[C@H]54)c(-c4cccc5c(NS(C)(=O)=O)nn(C)c45)cc3s2)cn1` [Compound 151, 2-((3bS,4aR)-5,5-difluoro-3-(trifluoromethyl)-3b,4,4a,5-tetrahydro-1H-cyclopropa[3,4]cyclopenta[1,2-c]pyrazol-1-yl)-N—((S)-2-(3,5-difluorophenyl)-1-(2-(2-(dimethylamino)pyrimidin-5-yl)-6-(1-methyl-3-(methylsulfonamido)-1H-indazol-7-yl)thiazolo[4,5-b]pyridin-5-yl)ethyl)acetamide] gave a 50% effective concentration (EC50) of 14.1 nM.

Regarding `Cn1nc(NS(C)(=O)=O)c2c(Cl)ccc(-c3cc4[nH]c(C5CC5)nc4nc3[C@H](Cc3cc(F)cc(F)c3)NC(=O)Cn3nc(C(F)(F)F)c4c3C(F)(F)[C@@H]3C[C@H]43)c21` [Example 96, N—((S)-1-(6-(4-chloro-1-methyl-3-(methylsulfonamido)-1H-indazol-7-yl)-2-cyclopropyl-1H-imidazo[4,5-b]pyridin-5-yl)-2-(3,5-difluorophenyl)ethyl)-2-((3bS,4aR)-5,5-difluoro-3-(trifluoromethyl)-3b,4,4a,5-tetrahydro-1H-cyclopropa[3,4]cyclopenta[1,2-c]pyrazol-1-yl)acetamide], the midpoint of the response, the EC50, lay at 3.9 nM. Consider `O=C(Cn1nc(C(F)(F)F)c2c1C(F)(F)[C@@H]1C[C@H]21)N[C@@H](Cc1cc(F)cc(F)c1)c1nc2nc(-c3ccc(N4CCNCC4)cc3)sc2cc1-c1ccc2c(c1)C(=O)NC2` [Compound 147, 2-((3bS,4aR)-5,5-difluoro-3-(trifluoromethyl)-3b,4,4a,5-tetrahydro-1H-cyclopropa[3,4]cyclopenta[1,2-c]pyrazol-1-yl)-N—((S)-2-(3,5-difluorophenyl)-1-(6-(3-oxoisoindolin-5-yl)-2-(4-(piperazin-1-yl)phenyl)thiazolo[4,5-b]pyridin-5-yl)ethyl)acetamide], for which a half-maximal response (EC50) required 37 nM. In turn, `NC(=O)c1cc(-c2cc3sc(N4C[C@@H]5C[C@H]4CN5C4COC4)nc3nc2[C@H](Cc2cc(F)cc(F)c2)NC(=O)Cn2nc(C(F)(F)F)c3c2C(F)(F)[C@@H]2C[C@H]32)ccc1F` [Compound 27, 5-(5-((S)-1-(2-((3bS,4aR)-5,5-difluoro-3-(trifluoromethyl)-3b,4,4a,5-tetrahydro-1H-cyclopropa[3,4]cyclopenta[1,2-c]pyrazol-1-yl)acetamido)-2-(3,5-difluorophenyl)ethyl)-2-((1S,4S)-5-(oxetan-3-yl)-2,5-diazabicyclo[2.2.1]heptan-2-yl)thiazolo[4,5-b]pyridin-6-yl)-2-fluorobenzamide] registered a concentration for a half-maximal effect (EC50) of 52.3 nM. `Cn1nc(NS(C)(=O)=O)c2cccc(-c3cc4sc(NCCN5CCOCC5)nc4nc3[C@H](Cc3cc(F)cc(F)c3)NC(=O)Cn3nc(C(F)(F)F)c4c3C(F)(F)[C@@H]3C[C@H]43)c21` [Example 75, 2-((3bS,4aR)-5,5-difluoro-3-(trifluoromethyl)-3b,4,4a,5-tetrahydro-1H-cyclopropa[3,4]cyclopenta[1,2-c]pyrazol-1-yl)-N—((S)-2-(3,5-difluorophenyl)-1-(6-(1-methyl-3-(methylsulfonamido)-1H-indazol-7-yl)-2-((2-morpholinoethyl)amino)thiazolo[4,5-b]pyridin-5-yl)ethyl)acetamide]: the 50% effective concentration (EC50) turned out to be 9.4 nM.
